{"source": "patent US20260166125A1", "about": "“NLRP12 AND NLRC5 MODULATORS AND METHODS FOR USING THE SAME TO MODULATE DISEASES” (St. Jude Children's Research Hospital, Inc., priority 2022, published 2026)", "molecules": {"B1": {"name": "high-mobility group box 1 protein (protein, UniProt P63158 1-215, looked up)", "High mobility group protein B1": "MGKGDPKKPRGKMSSYAFFVQTCREEHKKKHPDASVNFSEFSKKCSERWKTMSAKEKGKFEDMAKADKARYEREMKTYIPPKGETKKKFKDPNAPKRPPSAFFLFCSEYRPKIKGEHPGLSIGDVAKKLGEMWNNTAADDKQPYEKKAAKLKEKYEKDIAAYRAKGKPDAAKKGVVKAEKSKKKKEEEDDEEDEEDEEEEEEEEDEDEEEDDDDE", "notes": "recombinant mouse HMGB1, a DAMP"}, "B2": {"name": "S100A8/A9: recombinant mouse S100A8/S100A9 heterodimer, a DAMP (protein, UniProt P27005 2-89; P31725 2-113, looked up)", "Protein S100-A8": "PSELEKALSNLIDVYHNYSNIQGNHHALYKNDFKKMVTTECPQFVQNINIENLFRELDINSDNAINFEEFLAMVIKVGVASHKDSHKE", "Protein S100-A9": "ANKAPSQMERSITTIIDTFHQYSRKEGHPDTLSKKEFRQMVEAQLATFMKKEKRNEALINDIMEDLDTNQDNQLSFEECMMLMAKLIFACHEKLHENNPRGHGHSHGKGCGK"}}, "key": {"[1]": {"system": "bone marrow-derived macrophages (BMDMs)", "assay": "Real-time imaging for cell death (propidium iodide incorporation, IncuCyte)", "type": "cell-based, mouse", "details": "WT BMDMs; stimuli alone or combined; 48 hours (FIG. 1, FIG. 2)", "protocol": "(§1) Bone Marrow-Derived Macrophages (BMDMs). Primary mouse BMDMs from wild-type and indicated mutant mice were grown for 6 days in Iscove's Modified Dulbecco's Medium (IMDM; Thermo Fisher Scientific) supplemented with 10% Fetal Bovine Serum (Biowest), 30% L929-conditioned media, 1% non-essential amino acids (Thermo Fisher Scientific) and 1% penicillin and streptomycin (Thermo Fisher Scientific). BMDMs at a density of 1×10^6 cells/well in 12-well plates or 5×10^5 cells/well in 24-well plates were seeded into growth media overnight before use.\n(§2) Cell Stimulation. BMDMs were stimulated with the following PAMPs, DAMPs and inhibitors alone or in combinations where indicated: 50 μM Hemin (heme; Sigma-Aldrich), 0.75 μg/mL Pam3CSK4 (Pam3; InvivoGen), 15 ng/mL ultrapure lipopolysaccharide (LPS) from E. coli 0111:B4 (InvivoGen), 500 ng/ml R848 (InvivoGen), 100 ng/mL TNF-α (Peprotech), 1 μg/mL poly(I:C) (Invivogen), 200 ng/mL monosodium urate crystals (Invivogen), 200 ng/mL recombinant mouse S100A8/S100A9 heterodimer (bio-techne), 200 ng/mL recombinant mouse HMGB1 (Abcam), 25 μM Z-VAD(OMe)-FMK (zVAD; Cayman Chemical) and 45 μM Necrostatin 2 racemate (Nec-1; Selleckchem).\n(§3) Real-Time Imaging for Cell Death. The kinetics of cell death were monitored using the IncuCyte S3 or SX5 (Sartorius) live-cell analysis system. BMDMs (5×10^5 cells/well) were seeded in 24-well tissue culture plates and were treated with the indicated stimuli. Cell death was measured by propidium iodide (PI; Life Technologies) incorporation following the manufacturer's protocol. The plate was scanned for the indicated time durations where fluorescent and phase-contrast images were acquired in real-time every 1 hour. PI-positive dead cells are marked with a red mask and were quantified using the software package supplied with the IncuCyte imager."}, "[2]": {"system": "heme plus Pam3-treated BMDMs", "assay": "Inhibitor effect on heme plus Pam3-induced cell death in BMDMs", "type": "cell-based, mouse", "protocol": "as §1, §2, §3"}}, "note": "Peptide text beside a SMILES is read from it. * marks the point of attachment. Cbz = O=C(OCc1ccccc1)*; CH2F = FC*", "data": [{"molecule": "Pam3CSK4", "values": [{"measurement": "cell death", "setting": "[1]", "result": "Minimal cell death"}]}, {"molecule": "O=c1[nH]c(=O)c2[nH]c([O-])nc2[nH]1.[Na+]", "note": "[MSU, monosodium urate]", "values": [{"measurement": "cell death", "setting": "[1]", "result": "did not induce cell death"}]}, {"molecule": "lipopolysaccharide [LPS]", "values": [{"measurement": "cell death", "setting": "[1]", "result": "Minimal cell death"}]}, {"molecule": "polyinosinic:polycytidylic acid [poly(I:C)]", "values": [{"measurement": "cell death", "setting": "[1]", "result": "Minimal cell death"}]}, {"molecule": "CC(C)(O)c1coc(S(=O)(=O)NC(=O)Nc2c3c(cc4c2CCC4)CCC3)c1", "note": "[MCC950]", "values": [{"measurement": "effect on cell death", "setting": "[2]; heme plus Pam3-treated BMDMs, MCC950", "result": "did not prevent cell death"}]}, {"molecule": "COC(=O)C[C@H](NC(=O)[C@H](C)NC(=O)[C@@H](NC(=O)OCc1ccccc1)C(C)C)C(=O)CF", "note": "[zVAD, Z-VAD(OMe)-FMK] (Cbz-Val-Ala-Asp(OMe)-CH2F)", "values": [{"measurement": "effect on cell death", "setting": "[2]; WT BMDMs, heme plus Pam3, combination of Nec-1 with zVAD", "result": "further reduced the cell death"}]}, {"molecule": "C=CC1=C(C)c2cc3[n-]c(cc4[n-]c(cc5nc(cc1n2)C(C)=C5C=C)c(C)c4CCC(=O)O)c(CCC(=O)O)c3C.[Cl-].[Fe+3]", "note": "[heme, ferriprotoporphyrin IX chloride]", "values": [{"measurement": "cell death", "setting": "[1]", "result": "did not induce cell death"}]}, {"molecule": "CN1C(=O)NC(Cc2c[nH]c3c(Cl)cccc23)C1=O", "note": "(racemic) [Nec-1, Necrostatin 2 racemate]", "values": [{"measurement": "effect on cell death", "setting": "[2]; WT BMDMs, heme plus Pam3, Nec-1 alone, compared to PBS control", "result": "partially reduced cell death"}]}, {"molecule": "B1", "values": [{"measurement": "cell death", "setting": "[1]", "result": "did not induce cell death"}]}, {"molecule": "B2", "values": [{"measurement": "cell death", "setting": "[1]", "result": "did not induce cell death"}]}]}
